Test results taken from patent US8143254B2, “Methods for modulating ion channels” (Cornell Research Foundation, Inc., priority 2005, dated 2012).
Like-named read-outs stand apart in the source and are kept apart here.

Target: T1, MiRP2-Kv2.1 (Rattus norvegicus, UniProt P15387)
T1 construct: expressed in transfected cells; host or cells: Xenopus oocytes (co-injected cRNA)
T1 sequence (P15387 1-857): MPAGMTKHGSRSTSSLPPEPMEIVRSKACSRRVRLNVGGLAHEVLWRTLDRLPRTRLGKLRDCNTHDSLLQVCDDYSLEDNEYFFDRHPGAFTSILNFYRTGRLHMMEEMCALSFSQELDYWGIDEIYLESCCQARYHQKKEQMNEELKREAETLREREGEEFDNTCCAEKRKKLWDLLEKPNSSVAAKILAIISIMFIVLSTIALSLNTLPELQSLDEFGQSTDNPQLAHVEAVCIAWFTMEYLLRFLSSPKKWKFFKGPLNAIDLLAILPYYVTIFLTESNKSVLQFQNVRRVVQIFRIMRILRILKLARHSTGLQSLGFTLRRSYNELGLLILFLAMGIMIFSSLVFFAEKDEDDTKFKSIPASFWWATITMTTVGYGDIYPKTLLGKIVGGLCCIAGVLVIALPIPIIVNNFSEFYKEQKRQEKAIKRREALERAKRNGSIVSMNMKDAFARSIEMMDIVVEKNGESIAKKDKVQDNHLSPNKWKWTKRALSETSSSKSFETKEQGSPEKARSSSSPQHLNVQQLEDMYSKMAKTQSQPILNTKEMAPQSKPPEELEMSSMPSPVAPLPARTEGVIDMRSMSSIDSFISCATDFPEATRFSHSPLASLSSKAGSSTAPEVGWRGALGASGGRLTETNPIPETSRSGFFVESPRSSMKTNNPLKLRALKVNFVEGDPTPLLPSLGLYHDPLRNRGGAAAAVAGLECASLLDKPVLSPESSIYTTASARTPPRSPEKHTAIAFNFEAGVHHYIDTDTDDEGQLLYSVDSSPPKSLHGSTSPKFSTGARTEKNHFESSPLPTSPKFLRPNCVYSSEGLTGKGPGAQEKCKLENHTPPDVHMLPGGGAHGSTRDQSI
T1 sequence (Q9Y6H6 1-103 partner): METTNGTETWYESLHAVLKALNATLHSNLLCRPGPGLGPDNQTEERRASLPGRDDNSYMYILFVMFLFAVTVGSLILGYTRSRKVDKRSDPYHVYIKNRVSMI
Assay: TEVC of Xenopus oocytes co-injected with Kv2.1 and MiRP2 cRNA
Type: cell-based
Details: for p (Hill slope) of logistic dose-response fit: MiRP2-Kv2.1; for effect of MiRP2 on sensitivity of Kv2.1 to the compound: MiRP2-Kv2.1 versus Kv2.1 alone
Experimental: Stage V-VI Xenopus oocytes are separated into small groups using forceps, defolliculated by agitation in Ca^2+-free Ringer solution containing collagenase for one hour, washed, then stored at 15° C. in full Ringers solution before injection. cRNA sufficient to give 1-10 μA of current at physiological voltages for each channel type is injected into Xenopus oocytes (selected by appearance for overall health and uniformity of color) using a Sutter manual injector (typically 0.1-5 ng cRNA in a volume of 25-50 nl). The oocytes are then stored for 1-3 days at 15° C. before TEVC recording. Beta subunit cRNA is co-injected as appropriate, typically 2 ng per oocyte.
Whole cell oocyte experiments are performed using a Warner OC-725C amplifier and pClamp9 software with oocytes bathed in a small-volume Warner oocyte bath and viewed with a Fisher dissection microscope. Bath solution for whole cell oocyte recordings, e.g., for potassium channel analysis, is generally (in mM): 96 NaCl, 4 KCl, 1 MgCl2, 0.3 CaCl2, 10 HEPES (Ph 7.4); whole-cell oocyte TEVC pipettes are filled with 3 M KCl. Oocyte patches are studies using an Axon Instruments small-volume bath, viewed with an Olympus IX50 inverted microscope, and recordings made using an Axon Multiclamp 700 A Amplifier and pCLAMP9 software (Axon Instruments). Extracellular solution, e.g., for potassium channel analysis, is generally (in mM): 135 NaCl, 5 KCl, 1.2 MgCl2, 5 HEPES, 2.5 CaCl2, 10 D-glucose (Ph 7.4). Intracellular solution, e.g., for potassium channel analysis, is generally (in mM): 10 NaCl, 117 KCl, 2 MgCl2, 11 HEPES, 11 EGTA, ICaCl2 (Ph 7.2). Patch pipettes are approximately 3-5 MΩ resistance when filled with recording solution.
Quantitative aspects of ion action on ion channels are compared using standard pulse protocols. Pulse times and voltages will vary according to which currents are being studied. I/V and G/V curves are typically fit to a standard Boltzmann function: 1/{1+exp[(V1/2−V)/Vs]}, where V1/2 is the half-maximal voltage of activation and Vs the slope factor, for quantification and comparison. Kinetics of drug effects upon wash-in are generally fit with single or multiple exponential functions and values for τ and amplitude reported. Drug inhibition constants are calculated after generating a dose response curve by fitting with a logistic dose-response function (see equation (i) below). Typically, 5-20 cells per group are recorded from for heterologous expression experiments. Values are to be stated as mean±SEM with statistical significance set at p<0.05 (unpaired students t-test, ANOVA or the Mann-Whitney Rank Sum Test as appropriate).
Injected oocytes, bathed in bath solution containing 4 mM KCl, unless otherwise stated, are impaled with current and voltage electrodes and clamped at −80 mV holding potential using a Warner OC-725C amplifier. For single-voltage dose-response assessment, currents are recorded for several pulses (each of 1-5 s at a frequency of 0.1 Hz depending upon channel type) in the absence of drug, until equilibrium current level is reached, and then during further pulses with bath application of various concentrations of drug, each until equilibrium current inhibition is observed, with a washout phase in between to eliminate the possibility of channel run-down and other non-drug effects. […] Drug concentrations are chosen to ensure inhibition values between 0 and 90-100% with at least 3 values within the linear portion of the curve so that the inhibition constant (Ki) can be calculated accurately by fitting with a logistic dose-response function (formula (i)) using the Origin 6.1 graph package.
We explored blocking effects on Kv2.1 with and without the MiRP2 ancillary subunit. Kv2.1 can co-assemble with MiRP2 in rat brain. The sensitivities of two diammonium compounds (JE188 and TA279) were analyzed by functional expression in Xenopus oocytes using two-electrode voltage clamp (TEVC), and bath application of the compounds at various concentrations. […]

SMILES | IC50 | p (Hill slope) of logistic dose-response fit | effect of MiRP2 on sensitivity of Kv2.1 to the compound | IC50 (MiRP2-Kv2.1, external bath application, read-out: x0 of logistic dose-response fit of current inhibition (converted))
CCCCCCCCCCCCCCCC[N+]12CCN(CC1)CC2 [TA279, 1-aza-4-azonia-4-hexadecylbicyclo[2.2.2]octane] | 1.3 ± 0.4 µM | 0.8±0.2 | did not significantly alter inhibition | –
CCCCCCCCCCCC[N+]12CCN(CC1)CC2 [JE188, 1-aza-4-azonia-4-dodecylbicyclo[2.2.2]octane] | – | 1.6±0.2 | two-fold decrease in sensitivity | 49.2 ± 8.2 µM
